{
  "source": "patent US20250282819A1",
  "about": "“MITOCHONDRIA-[…] PEPTIDE THAT CAN BE […] DELIVERED AT NANOMOLAR CONCENTRATION, AND USE THEREOF” (CAMP THERAPEUTICS INC., priority 2021, published 2025)",
  "key": {"[1]": {"experiment": "Cytotoxicity by WST-1 assay", "type": "cell-based", "conditions": "human, HeLa cells, one day, read-out: concentration at which 50% of the cultured cells were killed", "method": "The cytotoxicity was measured by WST-1 assay. Specifically, 1×10^4 HeLa cells were seeded into 96-well plates. After 24 hours, the cells were treated with different concentrations of CMP3013 peptide indicated in FIG. 12 and incubated for one day. At the end of the incubation, the culture medium was replaced with new culture medium, treatment with EZ-Cytox (DoGEN, South Korea) at 10 μL was performed per well, and incubation was performed for 30 minutes. Then, the absorbance was measured at 450 nm. As a result, it was identified that the cytotoxicity of CMP3013 was only observed at micromolar or higher levels, and the concentration, at which 50% of the cultured cells were killed, reached 10 micromolar (FIG. 12)."}, "[2]": {"experiment": "Membrane potential restoring ability, JC-1, comparison of SS-31 and CMP3013", "type": "cell-based", "conditions": "1 mM H2O2; 10 or 30 nM", "method": "For comparison of efficacy of the two peptides on restoration of mitochondrial function, SS-31 and CMP3013 were tested for their effect on membrane potential. The change in mitochondrial membrane potential was measured as a fluorescence ratio of JC-1 according to the method described in Experimental Example 8, and 1 mM of H2O2 was used as a mitochondrial damaging agent."}, "HeLa cells [3]": {"test_system": "HeLa cells", "experiment": "Mitochondria-targeting ability by mitochondrial fractionation", "type": "cell-based", "conditions": "EC50 concentration", "method": "To determine at what rate the dimeric bundle peptides according to the present disclosure target mitochondria, mitochondrial fractionation was performed according to the method described in Experimental Example 4. […] Then, the cells were harvested and fractionation was performed.\nCell-penetrating ability was performed according to the method described in Experimental Example 3, and mitochondria-targeting ability was assessed by mitochondrial fractionation according to the method described in Experimental Example 4. In addition to SS-31 as a conventional peptide, a mitochondrial-penetrating peptide of Kelly's group (MPP1a; see Horton, Kristin L et al. “Mitochondria-penetrating peptides.” Chemistry & biology vol. 15, 4 (2008): 375-82) was used as an additional comparison group. The amino acid sequence of MPP1a is as follows: X(dR)XKX(dR)XK (where X is cyclohexylalanine, dR is D-arginine, and K is lysine).\nIntracellular distribution of peptides was detected using the mitochondria isolation method. […] The cells were harvested, washed with cold PBS, and suspended in cold IB (30 mM Tris-HCl, pH 7.4; 225 mM mannitol; 75 mM sucrose; and 0.1 mM EGTA). […] Lysed cells were monitored under a light microscope. […] The fluorescence intensity of each fraction was measured by using a microplate reader [TECAN, Switzerland; excitation (Ex)/emission (Em)=510/570 nm]."}, "[4]": {"experiment": "Oligomerization tendency by HPLC retention time at 40 and 5° C.", "type": "physicochemical", "conditions": "10 μl of 0.2 mM peptide", "method": "Specifically, 10 μl of each peptide solution at 0.2 mM was injected into HPLC, and the time at which the peptide was detected (RT) was measured at 40° C. and 5° C., respectively. Here, the stationary phase and mobile phase conditions of the HPLC were set using well-known methods. In general, the better the oligomer is formed, the detection time becomes longer at 40° C., which is a relatively higher temperature, thereby resulting in larger ΔΔRT that is a difference from the value measured at 5° C."}, "HeLa cells [5]": {"test_system": "HeLa cells", "type": "cell-based", "method": "Cell-penetrating ability was evaluated using the fluorescently-labeled versions of the dimeric bundle peptides synthesized in Example 3, and measured as EC50 values according to the method described in Experimental Example 3.\n1×10^5 HeLa cells were seeded into a 24-well plate. After 24 hours, the peptide was added to the cells and further incubation was performed for 3 hours. The incubated cells were harvested, washed with PBS, suspended in PBS, and then analyzed by fluorescence-activated cell sorting (FACS; BD Accuri, USA). The cells whose fluorescence intensity exceeds the maximum intensity of untreated cells were classified as fluorescence-positive cells."}, "HeLa cells [6]": {"test_system": "HeLa cells", "experiment": "ATP levels in damaged cells pretreated with peptide", "type": "cell-based", "conditions": "HeLa cells, 10 or 30 nM; 1 μM antimycin A or 1 mM H2O2", "method": "The relative ATP levels of cells were compared by fluorescence intensity according to the method described in Experimental Example 8, and mitochondrial damage was induced by treatment with two different mitochondrial damaging agents (1 μM of antimycin A or 1 mM of H2O2).\nCellular ATP levels were assessed using an ATP detection kit (Abcam, ab113849, USA) according to the manufacturer's instructions. Fluorescence luminescence was measured with a microplate reader (Promega, Glomax 96 microplate luminometer, USA)."}, "HeLa cells [7]": {"test_system": "HeLa cells", "experiment": "Co-localization with endosome, lysosome and cardiolipin (NAO) markers", "type": "cell-based", "method": "Next, to investigate whether mitochondrial damage affects the amount of peptide present in lysosomes, cardiolipin-specific targeting was investigated using NAO in the presence or absence of CCCP.\nFor microscopic observation, HeLa cells were cultured in glass-bottom dishes (SPL, 200350, Korea). The cells were then treated with peptides for 3 hours and stained with MitoTracker™ (Thermo Fisher Scientific, A1372, USA; 100 nM, 1 hr), nonyl acridine orange (NAO; Thermo Fisher Scientific, A1372; 100 nM, 1 hr), Hoechst 33342 ([…], 20 min), CellLight™ early endosomes-GFP (Thermo Fisher Scientific, C10586; […], 16 hr), and/or LysoTracker™ (Thermo Fisher Scientific, L7525; 50 nM, 30 min). The cells were then rinsed with PBS and HBSS was added thereto. Images of the stained cells were obtained using a microscope (Zeiss LSM 880 and ELYRA PS.1). To generate ultra-high resolution images, a structured illumination process was performed with ZEN Black software. Pearson r values were calculated by using ImageJ software."}, "C57BL/6 mice": {"test_system": "C57BL/6 mice", "experiment": "TAA-induced acute liver failure model", "quoted_text": "Serum samples were obtained from blood collected from the heart on Day 6, and the samples were analyzed using a hematology analyzer (Hitachi Chemical Industries, Ltd., Japan). Blood AST (aspartate aminotransferase), ALT (alanine aminotransferase), and ALP (alkaline phosphatase) were measured and evaluated as liver injury markers.\nSerum samples were obtained on the seventh day (Day 7) and analyzed using a hematology analyzer. Blood AST (aspartate aminotransferase), ALT (alanine aminotransferase), and ALP (alkaline phosphatase) were measured and evaluated as liver injury markers."}, "HeLa cells [8]": {"test_system": "HeLa cells", "experiment": "Preferential binding to CCCP-damaged mitochondria, confocal microscopy", "type": "cell-based", "conditions": "100 nM 3 hours, 20 μM CCCP", "quoted_text": "To damage mitochondria, treatment with carbonyl cyanide m-chlorophenyl hydrazone (CCCP) at a concentration of 20 μM was performed for 30 minutes.\nFor microscopic observation, HeLa cells were cultured in glass-bottom dishes (SPL, 200350, Korea). The cells were then treated with peptides for 3 hours and stained with MitoTracker™ (Thermo Fisher Scientific, A1372, USA; 100 nM, 1 hr), nonyl acridine orange (NAO; Thermo Fisher Scientific, A1372; 100 nM, 1 hr), Hoechst 33342 (1 g/mL, 20 min), CellLight™ early endosomes-GFP (Thermo Fisher Scientific, C10586; 2 L/10,000 cells, 16 hr), and/or LysoTracker™ (Thermo Fisher Scientific, L7525; 50 nM, 30 min). The cells were then rinsed with PBS and HBSS was added thereto. Images of the stained cells were obtained using a microscope (Zeiss LSM 880 and ELYRA PS.1). To generate ultra-high resolution images, a structured illumination process was performed with ZEN Black software. Pearson r values were calculated by using ImageJ software."}, "[9]": {"conditions": "1 mg/kg intravenous x3, TAA 100 mg/kg Day 5, serum Day 6"}, "[10]": {"conditions": "mice, 1 mg/kg intravenous, Days 0, 2, 4"}},
  "note": "Entries after “also recorded” stand apart in the source; their conditions may differ. Where a SMILES comes first, the peptide text is derived from it.",
  "data": [
    {"compound": "CC(=O)N[C@@H](CC1CCCCC1)C(=O)N[C@H]1CSSC[C@@H](C(=O)N[C@@H](CCCNC(=N)N)C(N)=O)NC(=O)[C@H](CC2CCCCC2)NC(=O)[C@H](CCCNC(=N)N)NC(=O)[C@H](CCCNC(=N)N)NC(=O)[C@H](CC2CCCCC2)NC(=O)[C@H](CC(C)C)NC(=O)[C@H](CCCNC(=N)N)NC(=O)[C@@H](NC(=O)[C@H](CC2CCCCC2)NC(C)=O)CSSC[C@@H](C(=O)N[C@@H](CCCNC(=N)N)C(N)=O)NC(=O)[C@H](CC2CCCCC2)NC(=O)[C@H](CCCNC(=N)N)NC(=O)[C@H](CCCNC(=N)N)NC(=O)[C@H](CC2CCCCC2)NC(=O)[C@H](CC(C)C)NC(=O)[C@H](CCCNC(=N)N)NC1=O", "note": "[CMP3013] (HELM PEPTIDE1{[ac].[Cha].C.R.L.[Cha].R.R.[Cha].C.R.[am]}|PEPTIDE2{[ac].[Cha].C.R.L.[Cha].R.R.[Cha].C.R.[am]}$PEPTIDE1,PEPTIDE2,3:R3-10:R3|PEPTIDE1,PEPTIDE2,10:R3-3:R3$$$V2.0)", "values": [
      {"measurement": "CC50 at 24 h", "setting": "[1]", "value": 10, "unit": "µM"},
      {"measurement": "mitochondrial membrane potential (Δψm), JC-1 ratio", "setting": "[2]", "value": "increased mitochondrial membrane potential"},
      {"measurement": "mitochondrial/cytoplasmic abundance ratio (M/C ratio)", "setting": "HeLa cells [3]", "value": 4.1},
      {"measurement": "rank of percentage in the mitochondrial fraction", "setting": "HeLa cells [3]; 3 hours", "value": "highest percentage in the mitochondrial fraction"},
      {"measurement": "Oligomerization tendency (RT at 40-5° C.) ΔΔRT", "setting": "[4]", "value": 2.683, "unit": "min"},
      {"measurement": "improvement in cell penetration rate as compared with SS-31", "setting": "HeLa cells [5]", "value": "approximately 100 fold"},
      {"measurement": "level of EC50 value (cell-penetrating ability)", "setting": "HeLa cells [5]; comparison of CMP3013, LR10, MPP1a, SS-31", "value": "lowest EC50 value"},
      {"measurement": "ATP production promoting ability", "setting": "HeLa cells [6]", "value": "promoting resumption of ATP production"},
      {"measurement": "proportion of peptide present in lysosomes (Pearson r, CMP3013-Lysotracker)", "setting": "HeLa cells [7]; absence of CCCP", "value": 0.30},
      {"measurement": "co-localization of CMP3013 with cardiolipin (NAO), Pearson r", "setting": "HeLa cells [7]; not treated with CCCP", "value": 0.08},
      {"measurement": "proportion of peptide present in lysosomes (Pearson r, CMP3013-Lysotracker)", "setting": "HeLa cells [7]; presence of CCCP", "value": 0.29},
      {"measurement": "co-localization of CMP3013 with cardiolipin (NAO), Pearson r", "setting": "HeLa cells [7]; treated with CCCP", "value": 0.43},
      {"measurement": "ALP decrease as compared with the TAA-administered group", "setting": "C57BL/6 mice; 1 mg/kg intravenous x3", "value": 19, "unit": "%"},
      {"measurement": "AST reduction as compared with the group having received TAA alone", "setting": "C57BL/6 mice; 1 mg/kg intravenous x3", "value": 35, "unit": "%"},
      {"measurement": "blood ALP", "setting": "C57BL/6 mice; [9]", "value": "462.00±81.10", "unit": "U/L"},
      {"measurement": "blood ALT", "setting": "C57BL/6 mice; [9]", "value": "332.60±86.31", "unit": "U/L"},
      {"measurement": "blood AST", "setting": "C57BL/6 mice; [9]", "value": "316.40±52.65", "unit": "U/L"},
      {"measurement": "dose dependence of AST and ALT decrease", "setting": "C57BL/6 mice; intraperitoneal 1, 5, or 10 mg/kg", "value": "dose-dependent manner"},
      {"measurement": "blood AST, ALT, and ALP", "setting": "C57BL/6 mice; intraperitoneal x3, TAA 100 mg/kg Day 5, serum Day 7", "value": "all significantly reduced"},
      {"measurement": "adverse events", "setting": "C57BL/6 mice; [10]", "value": "no adverse events occurred"},
      {"measurement": "mortality", "setting": "C57BL/6 mice; [10]", "value": "no animals died"},
      {"measurement": "weight loss", "setting": "C57BL/6 mice; mice, TAA and/or CMP3013", "value": "no weight loss was observed"},
      {"measurement": "targeting of damaged mitochondria", "setting": "HeLa cells [8]", "value": "moves into damaged mitochondria; also recorded: preferentially target damaged mitochondria"}
    ]}
  ]
}
